Assay results reported in patent publication US7763234B2, “Pharmaceutical compounds” (GE Healthcare AS, priority 2005, dated 2010).
Numbered stars: 1 amine (or outer) side, 2 acyl side, 3 side chain; on linkers, the order of the positions; unused ones are H or OH. Square brackets hold non-standard residues; d marks the D form. Peptide text beside a SMILES is read from it. ξ: configuration not given here. X1 = C/C(=N/O)C(C)(C)NCCC(CCNC(C)(C)/C(C)=N\O)CCN(CC(=O)[*:2])[*:1]; Ile(3ξ) = CCC(C)[C@H](N)C(=O)O

Target: T1, ACE (Sigma A-6778) (Oryctolagus cuniculus, UniProt P12822)
T1 construct: purchased Sigma A-6778
T1 sequence (P12822 34-1310): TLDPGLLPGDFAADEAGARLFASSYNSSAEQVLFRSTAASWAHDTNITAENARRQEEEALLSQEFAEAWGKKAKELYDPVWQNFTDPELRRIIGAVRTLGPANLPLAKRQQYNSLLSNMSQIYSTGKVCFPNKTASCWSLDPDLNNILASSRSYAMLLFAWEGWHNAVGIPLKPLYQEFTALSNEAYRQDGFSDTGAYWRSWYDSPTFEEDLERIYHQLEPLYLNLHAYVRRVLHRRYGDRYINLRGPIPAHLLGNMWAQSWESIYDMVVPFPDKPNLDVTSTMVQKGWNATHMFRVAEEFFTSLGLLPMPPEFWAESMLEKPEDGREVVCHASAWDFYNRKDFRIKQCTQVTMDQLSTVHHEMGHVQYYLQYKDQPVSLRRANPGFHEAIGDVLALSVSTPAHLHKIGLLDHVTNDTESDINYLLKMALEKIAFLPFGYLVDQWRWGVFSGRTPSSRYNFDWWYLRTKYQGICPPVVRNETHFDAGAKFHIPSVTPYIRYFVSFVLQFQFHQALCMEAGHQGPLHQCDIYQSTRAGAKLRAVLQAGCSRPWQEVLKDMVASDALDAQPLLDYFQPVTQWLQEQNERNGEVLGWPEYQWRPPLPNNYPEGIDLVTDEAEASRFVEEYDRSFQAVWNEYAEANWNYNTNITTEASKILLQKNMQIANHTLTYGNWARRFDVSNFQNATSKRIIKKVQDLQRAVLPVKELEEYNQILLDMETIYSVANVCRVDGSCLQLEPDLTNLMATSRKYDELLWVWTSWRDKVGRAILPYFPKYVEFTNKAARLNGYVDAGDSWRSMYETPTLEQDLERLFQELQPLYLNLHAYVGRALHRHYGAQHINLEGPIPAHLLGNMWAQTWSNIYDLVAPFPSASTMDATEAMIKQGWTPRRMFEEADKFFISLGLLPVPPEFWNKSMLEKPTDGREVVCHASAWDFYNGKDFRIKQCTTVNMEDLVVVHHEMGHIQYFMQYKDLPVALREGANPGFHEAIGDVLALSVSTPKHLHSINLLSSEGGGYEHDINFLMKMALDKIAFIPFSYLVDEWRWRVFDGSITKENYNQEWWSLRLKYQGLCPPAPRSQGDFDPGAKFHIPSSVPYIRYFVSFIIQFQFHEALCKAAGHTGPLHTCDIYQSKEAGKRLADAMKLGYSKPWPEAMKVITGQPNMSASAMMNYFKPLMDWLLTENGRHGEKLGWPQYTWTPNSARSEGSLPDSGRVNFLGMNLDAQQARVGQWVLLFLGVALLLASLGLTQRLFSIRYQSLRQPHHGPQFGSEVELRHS
Assay: ACE cleavage of Ang I peptide analogues (LC-MS)
Format: biochemical
Conditions: after 120 min; 0.1 mg peptide in 100 μL ACE stock solution (0.34 mg/mL, 200 mM HEPES pH 7.8), room temperature
Experimental: ACE stock solution was prepared: 0.34 mg ACE (Sigma A-6778) was dissolved in 1 mL 200 mM HEPES adjusted to pH 7.8 using KOH.
0.1 mg of the Ang I peptide analogue was dissolved in 100 μL of the ACE stock solution and the solution incubated at room temperature. Samples (10 μL) were withdrawn from the solution, diluted with H2O/0.1% TFA (400 μL) and analysed by LC-MS.

Row | percent cleavage/time | Compound
1 | 40%/120 min | CCC(C)[C@H](NC(=O)[C@H](Cc1ccc(O)cc1)NC(=O)[C@@H](NC(=O)[C@H](CCCNC(=N)N)NC(=O)CNCCC(CCNC(C)(C)/C(C)=N\O)CCNC(C)(C)/C(C)=N\O)C(C)C)C(=O)N[C@@H](Cc1cnc[nH]1)C(=O)N1CCC[C@H]1C(=O)N[C@@H](Cc1ccccc1)C(=O)N[C@@H](Cc1cnc[nH]1)C(=O)N[C@@H](CC(C)C)C(=O)O (stereo partly drawn) [cPn216-Gly-Arg-Val-Tyr-Ile-His-Pro-Phe-His-Leu-OH] (H-[X1]RVY[Ile(3ξ)]HPFHL-OH)
2 | 40%/120 min | Ang I: the decapeptide Ang I, formed from angiotensinogen by renin and converted by ACE to the active Ang II
